From patent publication US20250059205A1, “Heterocyclic Compounds and Methods of Use” (AMGEN INC., priority 2021, published 2025)
Read-outs that look alike come from different tables or passages of the source.

How the values were obtained:
[1] = system: Phosphorylation of ERK1/2 in AsPC-1 cells; assay: Phospho-ERK1/2 MSD Assay (AsPC-1 cells); assay type: cell-based; conditions: Homo sapiens, read-out: p-ERK (AsPC-1 cells) IC50
Method in brief: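 Read-out: MSD electrochemiluminescent detection of phosphorylated ERK1/2 in whole-cell lysates, fitted to a 4-parameter logistic curve for IC50. Prior to lysis, AsPC-1 cells (25,000 per well) received a 2 h compound dose-response at 37 °C.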

[2] = system: Phosphorylation of ERK1/2 in A-427 cells; assay: Phospho-ERK1/2 MSD Assay (A-427 cells); assay type: cell-based; conditions: Homo sapiens, 2 h treatment, read-out: p-ERK (A427 cells) IC50
Method in brief: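 ERK1/2 phosphorylation measured by Meso Scale whole-cell lysate assay after A-427 cells were exposed to a titration of compound for 2 h at 37 °C.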

[3] = molecular target: GDP-bound KRAS protein (aa 1-169), containing both G12D and C118A amino acid substitutions (Homo sapiens, UniProt P01116, C118A/G12D); assay: KRAS G12D Coupled Nucleotide Exchange Assay; assay type: biochemical; conditions: 2 h compound pre-incubation
GDP-bound KRAS protein (aa 1-169), containing both G12D and C118A amino acid substitutions, sequence (P01116 1-169 isoform P01116-2 G12D/C118A): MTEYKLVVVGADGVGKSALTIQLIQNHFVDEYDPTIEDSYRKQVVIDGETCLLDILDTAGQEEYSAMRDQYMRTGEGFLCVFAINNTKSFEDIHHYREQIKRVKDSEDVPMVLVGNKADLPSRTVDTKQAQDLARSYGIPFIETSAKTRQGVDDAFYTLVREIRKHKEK
Procedure: Following compound pre-incubation, purified SOS protein (aa 564-1049) and GTP (Roche 10106399001) were added to the assay wells and incubated for an additional 30 min. […] The assay plates were then read on a PerkinElmer EnVision Multilabel Reader, using AlphaScreen® technology, and data were analyzed using a 4-parameter logistic model to calculate IC50 values.

[4] = molecular target: His-tagged KRAS G12D protein (Homo sapiens, UniProt P01116, G12D); assay: KRAS G12D TR-FRET Assay; assay type: binding
His-tagged KRAS G12D protein, sequence (P01116 1-188 isoform P01116-2 G12D): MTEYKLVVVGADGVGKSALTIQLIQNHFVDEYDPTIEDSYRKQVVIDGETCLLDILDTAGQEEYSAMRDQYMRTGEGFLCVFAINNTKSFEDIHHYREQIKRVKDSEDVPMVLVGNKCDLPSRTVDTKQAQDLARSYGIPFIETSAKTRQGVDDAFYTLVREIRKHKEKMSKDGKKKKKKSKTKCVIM

Row | Compound | IC50 ([1]; ASPC1, 2 h, 2 hours treatment) [nM] | IC50 ([2]; A-427, 2 h) [nM] | Avg 2 h Coupled Exchange IC50 [3] [nM] | IC50 [4] [nM] | IC50 ([1]; ASPC1, 2 hours treatment) [nM] | IC50 [2] [nM]
1 | Cc1ccc2[nH]nc(C)c2c1-c1c(F)cc2c(N3C[C@H]4CC[C@@H](C3)N4)nc(OC[C@@]34CCCN3C[C@H](F)C4)nc2c1F [Example 208, 4-((1R,5S)-3,8-diazabicyclo[3.2.1]octan-3-yl)-7-(3,5-dimethyl-1H-indazol-4-yl)-6,8-difluoro-2-(((2R,7aS)-2-fluorotetrahydro-1H-pyrrolizin-7a(5H)-yl)methoxy) quinazoline] | 843 | 484 | 8 | 18 |  | 
2 | CCc1c(F)ccc2cc(O)cc(-c3c(F)cc4c(N5C[C@H]6C[C@@H](C5)N6)nc(OC[C@@]56CCCN5C[C@H](F)C6)nc4c3F)c12 [Example 121, 4-(4-((1R,5S)-3,6-diazabicyclo[3.1.1]heptan-3-yl)-6,8-difluoro-2-(((2R,7aS)-2-fluorotetrahydro-1H-pyrrolizin-7a(5H)-yl)methoxy)quinazolin-7-yl)-5-ethyl-6-fluoronaphthalen-2-ol] | 2850 | 5530 | 8 | 26 |  | 
3 | Oc1ccc(Cl)c(-c2ccc3c(N4C[C@H]5CC[C@@H](C4)N5)nc(OC[C@@]45CCCN4C[C@H](F)C5)nc3c2)c1F [Example 36, 3-(4-((1R,5S)-3,8-diazabicyclo[3.2. 1]octan-3-yl)-2-(((2R,7aS)-2-fluorotetrahydro-1H-pyrrolizin-7a(5H)-yl)methoxy)quinazolin-7-yl)-4-chloro-2-fluorophenol] | > 10000 | > 10000 | 82 | 483 |  | 
4 | Oc1cc(-c2c(F)cc3c(N4C[C@H]5CC[C@@H]4CN5)nc(OC[C@@]45CCCN4C[C@H](F)C5)nc3c2F)c2ccccc2c1Cl [Example 206, 4-(4-((1R,4R)-2,5-Diazabicyclo[2.2.2]octan-2-yl)-6,8-difluoro-2-(((2R,7aS)-2-fluorotetrahydro-1H-pyrrolizin-7a(5H)-yl)methoxy)quinazolin-7-yl)-1-chloronaphthalen-2-ol] | 705 | 116 | 42 | 30 |  | 
5 | Fc1cc2c(N3[C@@H]4CC[C@H]3CNC4)nc(OC[C@@]34CCCN3C[C@H](F)C4)nc2c(F)c1-c1cncc2cccc(Cl)c12 [Example 101, 4-((1R,5S)-3,8-Diazabicyclo[3.2.1]octan-8-yl)-7-(5-chloroisoquinolin-4-yl)-6,8-difluoro-2-(((2R,7aS)-2-fluorotetrahydro-1H-pyrrolizin-7a(5H)-yl)methoxy)quinazoline] |  |  | 35 | 70 | 1710 | 2920
6 | O=c1cc(-c2ccc3c(N4C[C@H]5CC[C@@H](C4)N5)nc(OC[C@@]45CCCN4C[C@H](F)C5)nc3c2F)c2ccccc2[nH]1 [Example 222, 4-(4-((1R,5S)-3,8-diazabicyclo[3.2.1]octan-3-yl)-8-fluoro-2-(((2R,7aS)-2-fluorotetrahydro-1H-pyrrolizin-7a(5H)-yl)methoxy)quinazolin-7-yl)quinolin-2-ol] | > 10000 | > 10000 | 74 | 255 |  | 
7 | Cc1c(Cl)cc2[nH]ncc2c1-c1ccc2c(N3C[C@H]4CC[C@@H](C3)N4)nc(OC[C@@]34CCCN3C[C@H](F)C4)nc2c1 [Example 40, 4-((1R,5S)-3,8-diazabicyclo[3.2. 1]octan-3-yl)-7-(6-chloro-5-methyl-1H-indazol-4-yl)-2-(((2R,7aS)-2-fluorotetrahydro-1H-pyrrolizin-7a(5H)-yl)methoxy) quinazoline] | 2390 | 686 | 6 | 11 |  | 
8 | C#Cc1cccc2cccc(-c3c(F)cc4c(N5[C@@H]6CC[C@H]5CNC6)nc(OC[C@@]56CCCN5C[C@H](F)C6)nc4c3F)c12 [Example 100, 4-((1R,5S)-3,8-Diazabicyclo[3.2.1]octan-8-yl)-7-(8-ethynylnaphthalen-1-yl)-6,8-difluoro-2-(((2R,7aS)-2-fluorotetrahydro-1H-pyrrolizin-7a(5H)-yl)methoxy)quinazoline] | 663 | 945 | 6 | 8 |  | 
9 | Nc1cc(-c2c(F)cc3c(N4C[C@H]5CC[C@@H](C4)N5)nc(OC[C@@]45CCCN4C[C@H](F)C5)nc3c2F)c2ccccc2c1 [Example 116, 4-(4-((1R,5S)-3,8-diazabicyclo[3.2.1]octan-3-yl)-6,8-difluoro-2-(((2R,7aS)-2-fluorotetrahydro-1H-pyrrolizin-7a(5H)-yl)methoxy)quinazolin-7-yl)naphthalen-2-amine] | 454 | 254 | 5 | 30 |  | 
10 | Oc1cc(Cl)c(C2CC2)c(-c2c(F)cc3c(N4CC5CCC4CN5)nc(OC[C@@]45CCCN4C[C@H](F)C5)nc3c2F)c1 (stereo in doubt) [Example 143, 3-(4-((1R,4R)-2,5-diazabicyclo[2.2.2]octan-2-yl)-6,8-difluoro-2-(((2R,7aS)-2-fluorotetrahydro-1H-pyrrolizin-7a(5H)-yl)methoxy)quinazolin-7-yl)-5-chloro-4-cyclopropylphenol] | 46 | 13 | 3 | 3 |  | 
11 | CCc1c(F)ccc2cc(O)cc(-c3c(F)cc4c(N5C6CCC5C(=O)NC6)nc(OC[C@@]56CCCN5C[C@H](F)C6)nc4c3F)c12 (single isomer, unassigned) [Example 175] | 1560 | 448 | 4 | 6 |  | 
12 | CCC(O)(CC)COc1nc(N2C[C@H]3CC[C@@H](C2)N3)c2cc(F)c(-c3cc(O)cc4ccc(F)c(F)c34)c(F)c2n1 [Example 124, 4-(4-((1R,5S)-3,8-diazabicyclo[3.2.1]octan-3-yl)-2-(2-ethyl-2-hydroxybutoxy)-6,8-difluoroquinazolin-7-yl)-5,6-difluoronaphthalen-2-ol] | 2410 | 4320 | 19 | 34 |  | 
13 | Fc1cc2c(N3C[C@H]4CC[C@@H](C3)N4)nc(OC[C@@]34CCCN3C[C@H](F)C4)nc2c(F)c1-c1cccc2ccc(F)c(F)c12 [Example 155, 4-((1R,5S)-3,8-diazabicyclo[3.2.1]octan-3-yl)-7-(7,8-difluoronaphthalen-1-yl)-6,8-difluoro-2-(((2R,7aS)-2-fluorotetrahydro-1H-pyrrolizin-7a(5H)-yl)methoxy) quinazoline] | 667 | 639 | 3 | 5 |  | 
14 | Cc1c(Cl)cc2cn[nH]c2c1-c1ccc2c(N3C[C@H]4CC[C@@H](C3)N4)nc(OC[C@@]34CCCN3C[C@H](F)C4)nc2c1F [Example 165, 4-((1R,5S)-3,8-diazabicyclo[3.2.1]octan-3-yl)-7-(5-chloro-6-methyl-1H-indazol-7-yl)-8-fluoro-2-(((2R,7aS)-2-fluorotetrahydro-1H-pyrrolizin-7a(5H)-yl)methoxy) quinazoline] | 3280 | 4430 | 11 | 27 |  | 
15 | C=C(C)c1ccc2[nH]ncc2c1-c1ccc2c(N3C[C@H]4CC[C@@H](C3)N4)nc(OC[C@@]34CCCN3C[C@H](F)C4)nc2c1F [Example 198, 4-((1R,5S)-3,8-Diazabicyclo[3.2.1]octan-3-yl)-8-fluoro-2-(((2R,7aS)-2-fluorotetrahydro-1H-pyrrolizin-7a(5H)-yl)methoxy)-7-(5-(prop-1-en-2-yl)-1H-indazol-4-yl)quinazoline] | 2930 | 5270 | 18 | 42 |  | 
16 | Oc1cc(-c2c(Cl)cc3c(N4C[C@H]5CC[C@@H](C4)N5)nc(OC[C@]45CCCN4C[C@H](F)C5)nc3c2F)c2ccccc2c1 [Example 51, 4-(4-((1R,5S)-3,8-diazabicyclo[3.2. 1]octan-3-yl)-6-chloro-8-fluoro-2-(((2R,7aR)-2-fluorotetrahydro-1H-pyrrolizin-7a(5H)-yl)methoxy)quinazolin-7-yl)naphthalen-2-ol] | 185 | 136 | 1 | 3 |  | 
17 | CCc1cccc2cccc(-c3c(F)cc4c(N5C[C@H]6CC[C@@H](C5)N6)nc(OC[C@@]56CCCN5C[C@H](F)C6)nc4c3F)c12 [Example 68, 4-((1R,5S)-3,8-diazabicyclo[3.2. 1]octan-3-yl)-7-(8-ethylnaphthalen-1-yl)-6,8-difluoro-2-(((2R,7aS)-2-fluorotetrahydro-1H-pyrrolizin-7a(5H)-yl)methoxy) quinazoline] | 658 | 732 | 3 | 4 |  | 
